Experimental data as given in article PMC6099110, “Valepotriates From the Roots and Rhizomes of Valeriana jatamansi Jones as Novel N-Type Calcium Channel Antagonists” (Frontiers in Pharmacology, 2018).

System: T1, Cav2.2 N-type voltage-gated calcium channel
T1 construct: gene CACNA1B
Assay: two-electrode voltage clamp of Cav2.[…] expressed in Xenopus oocytes, dose-response
Format: cell-based

CC(=O)OCC1=CO[C@@H](OC(=O)CC(C)C)[C@H]2C1=C[C@H](OC(=O)CC(C)C)[C@]2(O)COC(=O)C(OC(=O)CC(C)C)C(C)C (stereo partly drawn) [compound 1, (1S, 7S, 8R, 9S)-11-acetoxy-10-[a-(isovaleroxy)isovaleroxy]-1,7-diisovaleroxyvaltrate hydrin] was tested, and the EC50 was 3.3 µM.
CC(=O)OCC1=CO[C@@H](OC(=O)CC(C)(C)OC(C)=O)[C@H]2C1=C[C@H](OC(=O)CC(C)C)[C@]2(O)COC(=O)CC(C)C [compound 3, valtrate hydrin B8] was tested, and the EC50 was 4.8 µM.
